Measurements reported in ChEMBL document CHEMBL5465560, “Selectivity Literature for EUbOPEN Chemogenomic Library” (2024).

Legend:
[1] = target: T1, Serine/threonine-protein kinase LATS2 (Homo sapiens) (UniProt Q9NRM7); experiment: Selectivity interaction (KinomeScan (DiscoverX)) EUB0001619a LATS2; settings: at 1 µM
T1 sequence (whole entry): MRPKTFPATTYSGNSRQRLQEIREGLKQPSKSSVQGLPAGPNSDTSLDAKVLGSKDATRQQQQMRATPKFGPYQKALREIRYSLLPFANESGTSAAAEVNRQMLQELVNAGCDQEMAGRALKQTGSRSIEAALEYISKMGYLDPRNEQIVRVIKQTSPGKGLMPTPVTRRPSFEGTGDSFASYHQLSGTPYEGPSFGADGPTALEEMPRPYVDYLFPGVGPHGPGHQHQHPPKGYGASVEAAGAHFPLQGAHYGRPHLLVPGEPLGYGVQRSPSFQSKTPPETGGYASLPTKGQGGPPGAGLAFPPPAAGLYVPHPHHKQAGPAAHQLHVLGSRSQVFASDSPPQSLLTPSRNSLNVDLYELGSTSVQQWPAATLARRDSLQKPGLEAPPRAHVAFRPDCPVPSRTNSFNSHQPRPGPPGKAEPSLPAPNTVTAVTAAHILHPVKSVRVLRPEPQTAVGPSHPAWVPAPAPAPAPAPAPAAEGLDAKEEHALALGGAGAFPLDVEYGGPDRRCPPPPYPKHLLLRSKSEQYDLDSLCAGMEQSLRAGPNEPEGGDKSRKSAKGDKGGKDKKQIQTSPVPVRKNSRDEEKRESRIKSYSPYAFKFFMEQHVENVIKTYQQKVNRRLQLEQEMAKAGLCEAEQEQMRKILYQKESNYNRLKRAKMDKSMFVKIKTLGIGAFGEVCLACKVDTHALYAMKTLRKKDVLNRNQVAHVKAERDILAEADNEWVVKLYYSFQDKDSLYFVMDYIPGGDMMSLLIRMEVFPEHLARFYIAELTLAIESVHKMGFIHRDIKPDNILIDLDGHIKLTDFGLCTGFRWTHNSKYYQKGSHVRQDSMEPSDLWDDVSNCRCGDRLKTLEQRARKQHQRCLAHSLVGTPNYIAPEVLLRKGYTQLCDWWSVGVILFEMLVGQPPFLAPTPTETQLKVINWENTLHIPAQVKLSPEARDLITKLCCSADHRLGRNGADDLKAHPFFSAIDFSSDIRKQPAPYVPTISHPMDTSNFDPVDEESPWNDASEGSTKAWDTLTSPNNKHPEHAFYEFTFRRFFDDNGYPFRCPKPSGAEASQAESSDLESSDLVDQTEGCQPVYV

[2] = tested on: T2, Receptor-type tyrosine-protein kinase FLT3 (Homo sapiens), P36888 [K663Q]; experiment: (§1) Selectivity interaction (KinomeScan (DiscoverX)) EUB0000092b FLT3; settings: at 10 µM
T2 sequence (whole entry): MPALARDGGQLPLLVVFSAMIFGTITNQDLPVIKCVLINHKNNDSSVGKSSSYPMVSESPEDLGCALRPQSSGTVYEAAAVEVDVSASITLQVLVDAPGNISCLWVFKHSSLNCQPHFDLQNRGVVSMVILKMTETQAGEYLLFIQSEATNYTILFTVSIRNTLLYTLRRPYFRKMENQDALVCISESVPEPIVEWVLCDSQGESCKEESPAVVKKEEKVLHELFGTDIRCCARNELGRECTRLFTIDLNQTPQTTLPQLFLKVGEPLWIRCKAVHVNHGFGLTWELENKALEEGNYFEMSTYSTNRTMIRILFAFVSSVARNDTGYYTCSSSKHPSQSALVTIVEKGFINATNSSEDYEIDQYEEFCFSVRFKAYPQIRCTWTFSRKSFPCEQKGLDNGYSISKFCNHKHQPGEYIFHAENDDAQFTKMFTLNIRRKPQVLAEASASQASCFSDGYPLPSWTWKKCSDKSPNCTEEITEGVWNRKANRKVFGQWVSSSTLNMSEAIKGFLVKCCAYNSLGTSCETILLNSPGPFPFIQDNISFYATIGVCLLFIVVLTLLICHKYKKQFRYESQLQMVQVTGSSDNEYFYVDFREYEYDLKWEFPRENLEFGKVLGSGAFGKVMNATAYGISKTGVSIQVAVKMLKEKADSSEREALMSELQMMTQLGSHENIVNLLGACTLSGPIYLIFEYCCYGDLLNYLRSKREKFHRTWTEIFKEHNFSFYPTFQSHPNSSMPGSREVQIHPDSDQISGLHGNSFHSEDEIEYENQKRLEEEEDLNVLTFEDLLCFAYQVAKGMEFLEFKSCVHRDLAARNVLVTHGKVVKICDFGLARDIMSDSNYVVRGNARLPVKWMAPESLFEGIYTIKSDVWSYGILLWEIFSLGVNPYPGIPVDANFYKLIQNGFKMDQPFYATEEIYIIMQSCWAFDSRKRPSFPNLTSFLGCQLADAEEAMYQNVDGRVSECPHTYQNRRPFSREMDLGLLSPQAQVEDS

[3] = tested on: Receptor-type tyrosine-protein kinase FLT3 (Homo sapiens), P36888 [UNDEFINED MUTATION]; experiment: as §1; settings: at 10 µM

N#Cc1cccc(-c2c[nH]c3ncnc(N4CCOCC4)c23)c1 gave a % of control [1] of 87%.
With CCC(=O)N1CCN(c2ccc(-n3c(=O)ccc4cnc5ccc(-c6cnc7ccccc7c6)cc5c43)cc2C(F)(F)F)CC1 the % of control [2] was 23% and the % of control [3] was 29%.
